Test results: US5648365A, “Diarylalkyl piperidines useful as multi-drug resistant tumor agents” (Merrell Pharmaceuticals Inc., priority 1996, dated 1997)

Tests used:
MDR tumor cells [1] = assay: Cellular toxicity: inhibition of cell growth, colorimetric MTT assay; assay type: cell-based; conditions: concentration that inhibits cell growth by 50%, 72 hr
Description: (§1) A colorimetric assay is employed to determine the synergy between test compounds of the invention and vinblastine or adriamycin against the growth of MDR tumor cells. The assay is based on the ability of live tumor cells to reduce a tetrazoline compound, MTT (3-(4,5-dimethyl)[…])-2,5-diphenyl tetrazolium bromide, to a blue formazan product. Both the test compound and cytotoxic drug (vinblastine or adriamycin) were added to the cells growing in wells of a 96-well plate at different combinations of concentration. The cells were allowed to grow for 72 hr and, at the end of incubation, stained with MTT for 3 hr. The blue formazan product which developed, was dissolved with DMSO and the color intensity was recorded in a spectrophotometer. Based on the data, an isobologram analysis was performed. MDR activity (ED50 : μM) represents the concentration of the compound required to lower the IC50 value of vinblastine by 50% when both the compounds were added to the medium together. Cellular toxicity (IC50 : μM) represents concentration of the compound that inhibit cell growth by 50%. Activity index is the ratio of toxicity and MDR activity.

MDR tumor cells [2] = assay: MDR activity: synergy with vinblastine, colorimetric MTT assay; assay type: cell-based; conditions: for EC50: concentration required to lower the IC50 of vinblastine by 50% when both added together, 72 hr, MTT, read-out: MDR Activity ED50; for Activity Index: ratio of toxicity (IC50) and MDR activity (ED50), 4320 min
Description: as §1

| EC50 (MDR tumor cells [2]) [µM] | SMILES | IC50 (MDR tumor cells [1]) [µM] | Activity Index (MDR tumor cells [2]) |
| --- | --- | --- | --- |
| 0.31 | COc1cc(CC(=O)N2CCCCC2CC(c2ccccc2)c2ccccc2)cc(OC)c1OC (stereo not drawn) [Example 1, 1-[2-(2,2-Diphenyl-Ethyl)-Piperidin-1-yl]-2-(3,4,5-Trimethoxy-Phenyl)-Ethanone] | 33.8 | 109.0 |
| 1.16 | COc1ccccc1CC(=O)N1CCCCC1CC(c1ccccc1)c1ccccc1 (stereo not drawn) [Example 2, 1-[2-(2,2-Diphenyl-Ethyl)-Piperidin-1-yl]-2(2-Methoxy-Phenyl)-Ethanone] | 37.5 | 32.0 |
| 1.2 | O=C(Cc1ccc2c(c1)OCO2)N1CCCCC1CC(c1ccccc1)c1ccccc1 (stereo not drawn) [Example 3, 2-Benzo[1,3]Dioxol-5-yl-1-[2-(2,2-Diphenylethyl)-Piperidin-1-yl]-Ethanone] | 39 | 32.5 |
| 0.46 | COc1ccc(CCC(=O)N2CCCCC2CC(c2ccccc2)c2ccccc2)cc1OC (stereo not drawn) [Example 6, 3-(3,4-Dimethoxy-Phenyl)-1-[2-(2,2-Diphenylethyl)-Piperidin-1-yl]-Propan-1-one] | 21.6 | 47.0 |

| SMILES | EC50 (MDR tumor cells [2]) [µM] | IC50 (MDR tumor cells [1]) [µM] | Activity Index (MDR tumor cells [2]) |
| --- | --- | --- | --- |
| COc1cc(CC(=O)N2CCCCC2C(c2ccccc2)c2ccccc2)cc(OC)c1OC (stereo not drawn) [Example 9] | 0.7 | 30.3 | 43.5 |
